Laboratory results reported in patent US11446287B2, “Compounds and methods for EP300 or CBP modulation and indications therefor” (Opna Immuno-Oncology SA, priority 2019, dated 2022).

The compounds below were run against T1, Recombinant human EP300 containing the bromodomain (EP300-BD (1040-1161)) (Homo sapiens, UniProt Q09472) (assay: EP300 Alphascreen binding assay).
T1 construct: Recombinant human EP300 bromodomain (EP300-BD (1040-1161)); made in house; host or cells: E. coli BL21-CodonPlus (DE3), modified pET vector
T1 sequence (Q09472 1040-1161): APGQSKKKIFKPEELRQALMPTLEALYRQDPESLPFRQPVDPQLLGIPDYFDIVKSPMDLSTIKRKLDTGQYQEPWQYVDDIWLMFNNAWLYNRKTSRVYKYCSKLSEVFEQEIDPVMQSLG
Summary of the method: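 Displacement of a biotinylated acetyl-K56 histone H3 peptide from the N-His bromodomain construct (1040-1161) measured by AlphaScreen proximity, beads at 7.5 μg/ml final, read 60 min after addition. Protein, peptide and compound first incubated 1 h at room temperature, pH 7.5 HEPES buffer; IC50 by four-parameter logistic fit.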
`CCOc1cc(C(=O)O)cc(OCC)c1-n1cc(-c2cncc(Cl)c2)c2ncc(-c3c(C)noc3C)cc21` [P-0193, 4-(3-(5-chloropyridin-3-yl)-6-(3,5-dimethylisoxazol-4-yl)-1H-pyrrolo[3,2-b]pyridin-1-yl)-3,5-diethoxybenzoic acid] was tested, and the IC50 was 0.1 to 1000 nM.
With `CCOc1cc(C(=O)O)cc(OCC)c1-n1cc(-c2ccc(OC)cc2F)c2ncc(-c3c(C)noc3C)cc21` [P-0194, 4-(6-(3,5-dimethylisoxazol-4-yl)-3-(2-fluoro-4-methoxyphenyl)-1H-pyrrolo[3,2-b]pyridin-1-yl)-3,5-diethoxybenzoic acid] the IC50 was 0.1 to 1000 nM.
Work on `CCOc1cc(C(=O)O)cc(OCC)c1-n1cc(-c2cnn(C)c2)c2ncc(-c3c(C)noc3C)cc21` [P-0195, 4-(6-(3,5-dimethylisoxazol-4-yl)-3-(1-methyl-1H-pyrazol-4-yl)-1H-pyrrolo[3,2-b]pyridin-1-yl)-3,5-diethoxybenzoic acid] yielded an IC50 of 0.1 to 1000 nM.
In the case of `Cc1noc(C)c1-c1cnc2c(-c3ccccc3)cn(-c3ccc(C(=O)O)cc3OC(F)(F)F)c2c1` [P-0196, 4-(6-(3,5-dimethylisoxazol-4-yl)-3-phenyl-1H-pyrrolo[3,2-b]pyridin-1-yl)-3-(trifluoromethoxy)benzoic acid], the IC50 is reported as 0.1 to 1000 nM.
Compound `Cc1noc(C)c1-c1cnc2c(c1)c(-c1c(Cl)cc(C(=O)O)cc1Cl)cn2[C@@H](C)c1ccccn1` [P-0197, (S)-3,5-dichloro-4-(5-(3,5-dimethylisoxazol-4-yl)-1-(1-(pyridin-2-yl)ethyl)-1H-pyrrolo[2,3-b]pyridin-3-yl)benzoic acid] has an IC50 of 0.1 to 1000 nM.
Compound `Cc1noc(C)c1-c1cnc2c(c1)c(-c1c(Cl)cc(C(=O)O)cc1OC(F)(F)F)cn2C(C1CC1)C1CC1` [P-0198, 3-chloro-4-(1-(dicyclopropylmethyl)-5-(3,5-dimethylisoxazol-4-yl)-1H-pyrrolo[2,3-b]pyridin-3-yl)-5-(trifluoromethoxy)benzoic acid] has an IC50 of 0.1 to 1000 nM.
For `Cc1noc(C)c1-c1cnc2c(c1)c(-c1ccc(C(=O)O)cc1OC(F)(F)F)cn2C(CC#N)C1CC1` (stereo not drawn) [P-0199, 4-(1-(2-cyano-1-cyclopropylethyl)-5-(3,5-dimethylisoxazol-4-yl)-1H-pyrrolo[2,3-b]pyridin-3-yl)-3-(trifluoromethoxy)benzoic acid], the IC50 was 0.1 to 1000 nM.
In the case of `Cc1noc(C)c1-c1cnc2c(c1)c(-c1ccc(C(=O)O)cc1OC(F)(F)F)cn2C(CC#N)C1CCCC1` (stereo not drawn) [P-0200, 4-(1-(2-cyano-1-cyclopentylethyl)-5-(3,5-dimethylisoxazol-4-yl)-1H-pyrrolo[2,3-b]pyridin-3-yl)-3-(trifluoromethoxy)benzoic acid], the IC50 is reported as 0.1 to 1000 nM.
`CCOc1cc(C(=O)O)cc(OCC)c1-n1cc(-c2cnc(OC)nc2)c2ncc(-c3c(C)noc3C)cc21` [P-0201, 4-(6-(3,5-dimethylisoxazol-4-yl)-3-(2-methoxypyrimidin-5-yl)-1H-pyrrolo[3,2-b]pyridin-1-yl)-3,5-diethoxybenzoic acid] was tested, and the IC50 was 0.1 to 1000 nM.
For `Cc1noc(C)c1-c1cnc2c(c1)c(-c1ccc(C(=O)O)cc1OC(F)(F)F)cn2S(=O)(=O)C1CC1` [P-0202, 4-(1-(cyclopropylsulfonyl)-5-(3,5-dimethylisoxazol-4-yl)-1H-pyrrolo[2,3-b]pyridin-3-yl)-3-(trifluoromethoxy)benzoic acid], the IC50 was 0.1 to 1000 nM.
`Cc1noc(C)c1-c1cnc2c(c1)c(-c1ccc(C(=O)O)cc1OC(F)(F)F)cn2-c1ccnc(C(C)C)c1` [P-0203, 4-(5-(3,5-dimethylisoxazol-4-yl)-1-(2-isopropylpyridin-4-yl)-1H-pyrrolo[2,3-b]pyridin-3-yl)-3-(trifluoromethoxy)benzoic acid] showed an IC50 of 0.1 to 1000 nM.
With `Cc1noc(C)c1-c1cnc2c(c1)c(-c1ccc(C(=O)O)cc1OC(F)(F)F)cn2-c1cnccc1C#N` [P-0204, 4-(1-(4-cyanopyridin-3-yl)-5-(3,5-dimethylisoxazol-4-yl)-1H-pyrrolo[2,3-b]pyridin-3-yl)-3-(trifluoromethoxy)benzoic acid] the IC50 was 0.1 to 1000 nM.
With `CCOc1cc(C(=O)O)cc(F)c1-n1cc(-c2ccccc2)c2ncc(-c3c(C)noc3C)cc21` [P-0205, 4-(6-(3,5-dimethylisoxazol-4-yl)-3-phenyl-1H-pyrrolo[3,2-b]pyridin-1-yl)-3-ethoxy-5-fluorobenzoic acid] the IC50 was 0.1 to 1000 nM.
`CCOc1cccc(C#N)c1-n1cc(-c2ccccc2)c2ncc(-c3c(C)noc3C)cc21` [P-0206, 2-(6-(3,5-dimethylisoxazol-4-yl)-3-phenyl-1H-pyrrolo[3,2-b]pyridin-1-yl)-3-ethoxybenzonitrile] showed an IC50 of 0.1 to 1000 nM.
`Cc1noc(C)c1-c1cnc2c(-c3ccccc3)cn(-c3c(Cl)cccc3C#N)c2c1` [P-0207, 3-chloro-2-(6-(3,5-dimethylisoxazol-4-yl)-3-phenyl-1H-pyrrolo[3,2-b]pyridin-1-yl)benzonitrile] gave an IC50 of 1000 to 8000 nM.
With `CCOc1cc(C(=O)O)cc(OCC)c1-n1cc(C2=CCC(F)(F)CC2)c2ncc(-c3c(C)noc3C)cc21` [P-0208, 4-(3-(4,4-difluorocyclohex-1-en-1-yl)-6-(3,5-dimethylisoxazol-4-yl)-1H-pyrrolo[3,2-b]pyridin-1-yl)-3,5-diethoxybenzoic acid] the IC50 was 0.1 to 1000 nM.
Work on `CCOc1cc(C(=O)O)cc(OCC)c1-n1cc(-c2ccc(F)c(Cl)c2)c2ncc(-c3c(C)noc3C)cc21` [P-0209, 4-(3-(3-chloro-4-fluorophenyl)-6-(3,5-dimethylisoxazol-4-yl)-1H-pyrrolo[3,2-b]pyridin-1-yl)-3,5-diethoxybenzoic acid] yielded an IC50 of 0.1 to 1000 nM.
Compound `CCOc1cc(C(=O)O)cc(OCC)c1-n1cc(CC2CCC2)c2ncc(-c3c(COC)noc3C)cc21` [P-0210, 4-(3-(cyclobutylmethyl)-6-(3-(methoxymethyl)-5-methylisoxazol-4-yl)-1H-pyrrolo[3,2-b]pyridin-1-yl)-3,5-diethoxybenzoic acid] has an IC50 of 0.1 to 1000 nM.
Work on `Cc1cnccc1-n1cc(-c2ccc(C(=O)O)cc2OC(F)(F)F)c2cc(-c3c(C)noc3C)cnc21` [P-0211, 4-(5-(3,5-dimethylisoxazol-4-yl)-1-(3-methylpyridin-4-yl)-1H-pyrrolo[2,3-b]pyridin-3-yl)-3-(trifluoromethoxy)benzoic acid] yielded an IC50 of 0.1 to 1000 nM.
`Cc1noc(C)c1-c1cnc2c(c1)c(-c1ccc(C(=O)O)cc1OC(F)(F)F)cn2C1CCS(=O)(=O)CC1` [P-0212, 4-(5-(3,5-dimethylisoxazol-4-yl)-1-(1,1-dioxidotetrahydro-2H-thiopyran-4-yl)-1H-pyrrolo[2,3-b]pyridin-3-yl)-3-(trifluoromethoxy)benzoic acid] was tested, and the IC50 was 0.1 to 1000 nM.
`Cc1noc(C)c1-c1cnc2c(c1)c(-c1ccc(C(=O)O)cc1OC(C)C)cn2C(C1CC1)C1CC1` [P-0213, 4-(1-(dicyclopropylmethyl)-5-(3,5-dimethylisoxazol-4-yl)-1H-pyrrolo[2,3-b]pyridin-3-yl)-3-isopropoxybenzoic acid] gave an IC50 of 0.1 to 1000 nM.
In the case of `Cc1noc(C)c1-c1cnc2c(c1)c(-c1ccc(C(=O)O)cc1OCC(F)(F)F)cn2C(C1CC1)C1CC1` [P-0214, 4-(1-(dicyclopropylmethyl)-5-(3,5-dimethylisoxazol-4-yl)-1H-pyrrolo[2,3-b]pyridin-3-yl)-3-(2,2,2-trifluoroethoxy)benzoic acid], the IC50 is reported as 0.1 to 1000 nM.
`Cc1noc(C)c1-c1cnc2c(c1)c(-c1ccc(C(=O)O)cc1OC(F)(F)F)cn2-c1ncccc1C#N` [P-0215, 4-(1-(3-cyanopyridin-2-yl)-5-(3,5-dimethylisoxazol-4-yl)-1H-pyrrolo[2,3-b]pyridin-3-yl)-3-(trifluoromethoxy)benzoic acid] was tested, and the IC50 was 0.1 to 1000 nM.
Work on `Cc1noc(C)c1-c1cnc2c(c1)c(-c1ccc(C(=O)O)cc1OC(F)(F)F)cn2-c1ncccc1C#CC1CC1` [P-0216, 4-(1-(3-(cyclopropylethynyl)pyridin-2-yl)-5-(3,5-dimethylisoxazol-4-yl)-1H-pyrrolo[2,3-b]pyridin-3-yl)-3-(trifluoromethoxy)benzoic acid] yielded an IC50 of 0.1 to 1000 nM.
`CCOc1cc(C(=O)O)cc(OCC)c1-n1cc(-c2ccc(C#N)cc2F)c2ncc(-c3c(C)noc3C)cc21` [P-0217, 4-(3-(4-cyano-2-fluorophenyl)-6-(3,5-dimethylisoxazol-4-yl)-1H-pyrrolo[3,2-b]pyridin-1-yl)-3,5-diethoxybenzoic acid] showed an IC50 of 0.1 to 1000 nM.
In the case of `CCOc1cc(C(=O)O)cc(OCC)c1-n1cc(-c2ccc(C(=O)NC3CC3)cc2)c2ncc(-c3c(C)noc3C)cc21` [P-0218, 4-(3-(4-(cyclopropylcarbamoyl)phenyl)-6-(3,5-dimethylisoxazol-4-yl)-1H-pyrrolo[3,2-b]pyridin-1-yl)-3,5-diethoxybenzoic acid], the IC50 is reported as 0.1 to 1000 nM.
In the case of `COC(=O)c1cc(OC)c(-n2cc(-c3ccccc3)c3ncc(-c4c(C)noc4C)cc32)c(OC)c1` [P-0219, methyl 4-(6-(3,5-dimethylisoxazol-4-yl)-3-phenyl-1H-pyrrolo[3,2-b]pyridin-1-yl)-3,5-dimethoxybenzoate], the IC50 is reported as 0.1 to 1000 nM.
With `COc1cc(C(=O)O)cc(OC)c1-n1cc(-c2ccccc2)c2ncc(-c3c(C)noc3C)cc21` [P-0220, 4-(6-(3,5-dimethylisoxazol-4-yl)-3-phenyl-1H-pyrrolo[3,2-b]pyridin-1-yl)-3,5-dimethoxybenzoic acid] the IC50 was 0.1 to 1000 nM.
`COc1cccc(OC)c1-n1cc(-c2ccccc2)c2ncc(-c3c(C)noc3C)cc21` [P-0221, 4-(1-(2,6-dimethoxyphenyl)-3-phenyl-1H-pyrrolo[3,2-b]pyridin-6-yl)-3,5-dimethylisoxazole] was tested, and the IC50 was 0.1 to 1000 nM.
With `CCOc1cc(C(=O)O)cc(OCC)c1-n1cc(-c2ccnc(F)c2)c2ncc(-c3c(C)noc3C)cc21` [P-0222, 4-(6-(3,5-dimethylisoxazol-4-yl)-3-(2-fluoropyridin-4-yl)-1H-pyrrolo[3,2-b]pyridin-1-yl)-3,5-diethoxybenzoic acid] the IC50 was 0.1 to 1000 nM.
